Patent US4839357A, “Renin inhibitors containing phenylalanyl-histidine replacements” (Merck & Co., Inc., priority 1987, dated 1989)
Square brackets hold non-standard residues; d marks the D form. Peptide text beside a SMILES is read from it. * marks the point of attachment. Sta = CC(C)C[C@H](N)[C@@H](O)CC(=O)O; Isovaleryl = CC(C)CC(=O)*

Tests used:
renin = target: T1, renin (Homo sapiens, UniProt P00797); test: renin inhibition (IC50 printed in the synthesis text, no method described); format: biochemical
T1 sequence (P00797 67-406): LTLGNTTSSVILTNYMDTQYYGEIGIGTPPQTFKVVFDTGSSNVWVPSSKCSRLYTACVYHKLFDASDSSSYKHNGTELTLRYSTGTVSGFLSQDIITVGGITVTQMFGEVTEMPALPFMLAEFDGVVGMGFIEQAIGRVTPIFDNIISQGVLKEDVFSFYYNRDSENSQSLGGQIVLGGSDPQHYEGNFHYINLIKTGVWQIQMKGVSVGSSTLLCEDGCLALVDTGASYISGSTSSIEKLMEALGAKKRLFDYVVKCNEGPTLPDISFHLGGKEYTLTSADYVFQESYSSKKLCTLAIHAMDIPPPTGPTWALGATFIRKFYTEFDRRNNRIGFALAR

hog renin = conditions: after the injection of hog renin into nephrectomized rats; cited from earlier work

| Compound | IC50 (renin) [µM] | blood pressure in vivo (hog renin) |
| --- | --- | --- |
| CC(C)S(=O)(=O)C[C@@H](CCc1ccccc1)C(=O)N[C@@H](Cc1c[nH]cn1)C(=O)N[C@@H](CC1CCCCC1)[C@@H](O)CC(=O)NC1CN2CCC1CC2 (stereo partly drawn) [3-benzyl-2-(S)-(isopropylsulfonylmethyl)propionyl-L-histidyl-(3S,4S)-4-amino-5-cyclohexyl 3-hydroxypentanoyl 3-quinuclidinyl amide] | 0.011 |  |
| CC(C)CC(=O)N[C@H](C(=O)N[C@H](C(=O)N[C@@H](CC(C)C)[C@@H](O)CC(=O)N[C@@H](C)C(=O)N[C@@H](CC(C)C)[C@@H](O)CC(=O)O)C(C)C)C(C)C [pepstatin] (Isovaleryl-VV[Sta]A[Sta]-OH) |  | reduces blood pressure |
